Data on one compound can be found in patent publication US8507756B2, “Plant protection” (Plant Bioscience Limited, priority 2007, dated 2013).

Common to all, as to type: in vivo
One series deals with pepper. The experiment in a line: Long term growth and yield study after JA seed treatment, pepper. Particulars: seed treatment 1.5 or 3.0 mM JA, weekly harvests. An excerpt:
Data are means of 8 replicate plants+/−standard error of the mean, and the line is a fitted growth response.

In series [1] the test system is Manduca sexta (tobacco hornworm). In words: JA seed treatment, tomato plants challenged with Manduca sexta caterpillars. Particulars: tomato cv. Carousel, seed treatment 1.5 mM JA, 4 days feeding. On the procedure:
Tomato, pepper, maize and wheat seeds were treated with 3 mM JA or 1.5 mM JA solutions or with 3 mM methyl jasmonate (MeJA) or with deionised water containing 42.8 mM ethanol (control) by full submersion of up to 40 seeds in a Petri dish of solution wrapped in foil for a period of 24 hours at 4° C. in a fridge. A temperature of 4° C. was used both to prevent degradation of the jasmonic acid solutions and to prevent germination of the seeds.
Tomato plants were then challenged with Tetranychus urticae (two-spotted spider mite) which were allowed to feed for 9 days, Manduca sexta (tobacco hornworm) caterpillars which were allowed to feed for 4 days or Myzus persicae (aphid), which were allowed to feed for 10 or 12 days. In each case these organisms were restricted to the plant on which they had originally been placed. Pepper plants were challenged with Myzus persicae (aphid), which were allowed to feed for 2 weeks. […]
The effect of Manduca sexta or Spodoptera exempta on plants was determined by measurement of the leaf area eaten, measured using a leaf area meter.
Seeds of a UK commercial F1 hybrid tomato variety (cv. Carousel) were treated with 1.5 mM jasmonic acid (JA), and plants grown in conditions appropriate to this crop (as described under Example 1). […] Caterpillars were allowed to feed on the plants for four days and the area of grazed leaves was then measured. […]

Series [2] relates to Tetranychus urticae (two-spotted spider mite). The experiment in a line: Spider mite challenge of untreated tomato plants grown adjacent to plants from JA-treated seeds. The conditions noted are these: tomato cv Carousel; neighbours of 1.5 or 3.0 mM JA seed treatment. Here is the method:
The effect of Tetranychus urticae on plants was measured by means of counting the number of live and dead mites on each plant and the number of mite eggs present using a dissecting microscope. Seeds of a UK commercial F1 hybrid tomato variety (cv. Carousel) were treated with either 1.5 or 3.0 mM jasmonic acid (JA) and 42.8 mM ethanol in deionised H2O for a period of 24 hours at 4° C. in the dark. Those seeds were then removed from solution and washed in deionised H2O only to remove the JA coating the outside of the seed. Those seed were then germinated in a commercial manner using rockwool blocks and were grown on under glasshouse conditions appropriate to this crop. Plants were challenged with two-spotted spider mite (Tetranychus urticae) 7 weeks after treatment a common crop pest, acting here as a “model herbivore”. […] The effect was observed on comparing the controls located at least 10 meters away. (FIG. 6). The illustrated data are means of 10 replicates+/−standard error of the mean. […] The effect was again observed on comparing the controls located at least 10 meters away. (FIG. 7). The illustrated data are means of 10 replicates+/−standard error of the mean.

The next series relates to Myzus persicae. In words: JA or MeJA seed treatment, tomato plants challenged with aphids. Particulars: tomato cv. Carousel, seed treatment 3.0 mM JA, challenged 10 weeks after sowing. On the procedure: Tomato, pepper, maize and wheat seeds were treated with 3 mM JA or 1.5 mM JA solutions or with 3 mM methyl jasmonate (MeJA) or with deionised water containing 42.8 mM ethanol (control) by full submersion of up to 40 seeds in a Petri dish of solution wrapped in foil for a period of 24 hours at 4° C. in a fridge. A temperature of 4° C. was used both to prevent degradation of the jasmonic acid solutions and to prevent germination of the seeds. The seeds were then removed from the treatment solution and washed in 1 liter of deionised water for 5 minutes to remove the JA or MeJA coating the outside of the seeds. Tomato seeds were sown in rockwool blocks and grown on peat-based compost in glass houses at 12° C.-28° C. under artificial light on a 16 hour light and 8 hour dark cycle for 48, 56 or 70 days. Tomato plants were then challenged with Tetranychus urticae (two-spotted spider mite) which were allowed to feed for 9 days, Manduca sexta (tobacco hornworm) caterpillars which were allowed to feed for 4 days or Myzus persicae (aphid), which were allowed to feed for 10 or 12 days. In each case these organisms were restricted to the plant on which they had originally been placed. Pepper plants were challenged with Myzus persicae (aphid), which were allowed to feed for 2 weeks. Maize and wheat plants were challenged with Spodoptera […] caterpillars which were allowed to feed for 2 days (maize) or 3 days (wheat). The effect of Myzus persicae on plants was determined by counting the aphid population on each plant under a dissecting microscope at ×10 magnification. Seeds of a UK commercial F1 hybrid tomato variety (cv. Carousel) were treated with 3.0 mM jasmonic acid (JA) and 42.8 mM ethanol in deionised H2O for a period of 24 hours at 4° C. in the dark. […] Aphids were allowed to feed on the plants for twelve days and the aphid population was measured at intervals over this period. […]

Turning to `CC/C=C\C[C@H]1C(=O)CC[C@@H]1CC(=O)O` [JA, jasmonic acid], the “Vegetative or reproductive growth, or commercial yield” value in the series with pepper is listed as “no significant effect”. Further, the “Caterpillar growth, less than those feeding on controls” value in series [1] was 20%. Besides, in series [1] (challenged 8 weeks after seed treatment), the “Leaf area remaining after grazing, compared with controls” value is on record as “significantly higher”. Also, in series [2], the “Population of T. urticae on untreated plants grown adjacent to plants from JA-treated seeds, vs controls at least 10 meters away” value is “significant reduction” and the “Reproductive rate of the mite (egg production) on untreated plants grown adjacent to plants from JA-treated seeds, vs controls at least 10 meters away” value is on record as “significant reduction”. Besides, the “Aphid population compared with control plants” value with Myzus persicae (12 days feeding) is on record as “significant (p<0.05) reduction”. For the same compound, the “Aphid population compared with control plants, treated seed stored before sowing” value in the series with Myzus persicae (seed dried and stored at 4 C for two months before sowing, 10 days feeding) is on record as “significant (p<0.05) reduction”.
